Experimental data as given in PubChem BioAssay (NCI).
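At the GI50, growth is halved. At the TGI there is no net growth.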

Assays:
Test in all cases: NCI-60 cell line screen, 384-well format
RXF 393 renal = tested on: RXF 393 renal
786-0 renal = tested on: 786-0 renal
EKVX NSCLC = tested on: EKVX NSCLC
SNB-19 CNS = tested on: SNB-19 CNS
U251 glioblastoma = tested on: U251 glioblastoma
MOLT-4 leukemia = tested on: MOLT-4 leukemia
SF-268 CNS = tested on: SF-268 CNS
UACC-62 melanoma = tested on: UACC-62 melanoma
NCI/ADR-RES ovarian = tested on: NCI/ADR-RES ovarian
SN12C renal = tested on: SN12C renal
M14 melanoma = tested on: M14 melanoma
NCI-H522 lung = tested on: NCI-H522 lung
HT29 colon = tested on: HT29 colon
SF-539 CNS = tested on: SF-539 CNS
NCI-H23 lung = tested on: NCI-H23 lung
SW-620 colon = tested on: SW-620 colon
MDA-MB-231 breast = tested on: MDA-MB-231 breast
OVCAR-8 ovarian = tested on: OVCAR-8 ovarian
K-562 leukemia = tested on: K-562 leukemia
MALME-3M melanoma = tested on: MALME-3M melanoma
HCT-15 colon = tested on: HCT-15 colon
OVCAR-4 ovarian = tested on: OVCAR-4 ovarian
KM12 colon = tested on: KM12 colon
UO-31 renal = tested on: UO-31 renal
RPMI-8226 leukemia = tested on: RPMI-8226 leukemia
T-47D breast = tested on: T-47D breast
SK-MEL-5 melanoma = tested on: SK-MEL-5 melanoma
DU-145 prostate = tested on: DU-145 prostate
A498 renal = tested on: A498 renal
IGROV1 ovarian = tested on: IGROV1 ovarian
SK-OV-3 ovarian = tested on: SK-OV-3 ovarian
SF-295 CNS = tested on: SF-295 CNS
SNB-75 CNS = tested on: SNB-75 CNS
HOP-62 NSCLC = tested on: HOP-62 NSCLC
CCRF-CEM leukemia = tested on: CCRF-CEM leukemia
HCC-2998 colon = tested on: HCC-2998 colon
NCI-H460 NSCLC = tested on: NCI-H460 NSCLC
HL-60(TB) leukemia = tested on: HL-60(TB) leukemia
LOX IMVI melanoma = tested on: LOX IMVI melanoma
CAKI-1 renal = tested on: CAKI-1 renal
NCI-H226 lung = tested on: NCI-H226 lung
OVCAR-3 ovarian = tested on: OVCAR-3 ovarian
HS 578T breast = tested on: HS 578T breast
HCT-116 colon = tested on: HCT-116 colon
MCF7 breast = tested on: MCF7 breast
COLO 205 colon = tested on: COLO 205 colon
NCI-H322M lung = tested on: NCI-H322M lung
MDA-MB-435 melanoma = tested on: MDA-MB-435 melanoma
OVCAR-5 ovarian = tested on: OVCAR-5 ovarian
ACHN renal = tested on: ACHN renal
HOP-92 NSCLC = tested on: HOP-92 NSCLC
BT-549 breast = tested on: BT-549 breast
SK-MEL-28 melanoma = tested on: SK-MEL-28 melanoma
PC-3 prostate = tested on: PC-3 prostate
UACC-257 melanoma = tested on: UACC-257 melanoma
MDA-MB-468 breast = tested on: MDA-MB-468 breast
TK-10 renal = tested on: TK-10 renal
A549 NSCLC = tested on: A549 NSCLC

## Cc1nnn(C)c1-c1cnc2c3ccc(C(C)(C)O)cc3n([C@H](c3ccccc3)C3CCOCC3)c2c1
RXF 393 renal
  GI50: < 10 nM
  TGI: 155 nM
786-0 renal
  GI50: 15 nM
  TGI: 11700 nM
EKVX NSCLC
  GI50: 3190 nM
  TGI: 21600 nM
SNB-19 CNS
  GI50: 32 nM
  TGI: 20300 nM
U251 glioblastoma
  GI50: 315 nM
  TGI: 12700 nM
MOLT-4 leukemia
  GI50: < 10 nM
  TGI: 211 nM
SF-268 CNS
  GI50: 79.3 nM
  TGI: 16800 nM
UACC-62 melanoma
  GI50: < 10 nM
  TGI: 146 nM
NCI/ADR-RES ovarian
  GI50: 197 nM
  TGI: 8560 nM
SN12C renal
  GI50: 1210 nM
  TGI: 20600 nM
M14 melanoma
  GI50: < 10 nM
  TGI: 15700 nM
NCI-H522 lung
  GI50: < 10 nM
  TGI: 10.6 nM
HT29 colon
  GI50: < 10 nM
  TGI: 15100 nM
SF-539 CNS
  GI50: 10.3 nM
  TGI: 54.3 nM
NCI-H23 lung
  GI50: < 10 nM
  TGI: 3350 nM
SW-620 colon
  GI50: 1740 nM
  TGI: 17400 nM
MDA-MB-231 breast
  GI50: < 10 nM
  TGI: 11800 nM
OVCAR-8 ovarian
  GI50: < 10 nM
  TGI: 1300 nM
K-562 leukemia
  GI50: < 10 nM
  TGI: 13800 nM
MALME-3M melanoma
  GI50: < 10 nM
  TGI: 268 nM
HCT-15 colon
  GI50: 13.9 nM
  TGI: 1320 nM
OVCAR-4 ovarian
  GI50: < 10 nM
  TGI: 21.2 nM
KM12 colon
  GI50: < 10 nM
  TGI: 10800 nM
UO-31 renal
  GI50: 13.2 nM
  TGI: 13400 nM
RPMI-8226 leukemia
  GI50: < 10 nM
T-47D breast
  GI50: 13.7 nM
  TGI: 11100 nM
SK-MEL-5 melanoma
  GI50: < 10 nM
  TGI: 1110 nM
DU-145 prostate
  GI50: 753 nM
  TGI: 22100 nM
A498 renal
  GI50: < 10 nM
  TGI: 10700 nM
IGROV1 ovarian
  GI50: < 10 nM
  TGI: 1360 nM
SK-OV-3 ovarian
  GI50: < 10 nM
  TGI: 1450 nM
SF-295 CNS
  GI50: 380 nM
  TGI: 17000 nM
SNB-75 CNS
  GI50: 299 nM
  TGI: 14000 nM
HOP-62 NSCLC
  GI50: < 10 nM
  TGI: 2770 nM
CCRF-CEM leukemia
  GI50: < 10 nM
  TGI: 1420 nM
HCC-2998 colon
  GI50: < 10 nM
  TGI: 49.7 nM
NCI-H460 NSCLC
  GI50: 354 nM
  TGI: 15600 nM
HL-60(TB) leukemia
  GI50: < 10 nM
LOX IMVI melanoma
  GI50: < 10 nM
  TGI: 11.3 nM
CAKI-1 renal
  GI50: < 10 nM
  TGI: 3960 nM
NCI-H226 lung
  GI50: < 10 nM
  TGI: 10300 nM
OVCAR-3 ovarian
  GI50: < 10 nM
  TGI: 1710 nM
HS 578T breast
  GI50: < 10 nM
  TGI: 758 nM
HCT-116 colon
  GI50: 24.2 nM
  TGI: 12800 nM
MCF7 breast
  GI50: < 10 nM
  TGI: 435 nM
COLO 205 colon
  GI50: < 10 nM
  TGI: 331 nM
NCI-H322M lung
  GI50: 19 nM
  TGI: 17500 nM
MDA-MB-435 melanoma
  GI50: 43.1 nM
  TGI: 61700 nM
OVCAR-5 ovarian
  GI50: < 10 nM
  TGI: 12600 nM
ACHN renal
  GI50: 44.5 nM
  TGI: 12200 nM
HOP-92 NSCLC
  GI50: 25.3 nM
  TGI: 14500 nM
BT-549 breast
  GI50: < 10 nM
  TGI: 72.7 nM
SK-MEL-28 melanoma
  GI50: 89.9 nM
  TGI: 24200 nM
PC-3 prostate
  GI50: < 10 nM
  TGI: 25000 nM
UACC-257 melanoma
  GI50: < 10 nM
  TGI: 5550 nM
MDA-MB-468 breast
  GI50: < 10 nM
  TGI: 1220 nM
TK-10 renal
  GI50: < 10 nM
  TGI: 90.8 nM
A549 NSCLC
  GI50: < 10 nM
  TGI: 13000 nM
